From patent publication US9856290B2, “Glycopeptide compositions and uses thereof” (SUSSEX RESEARCH LABORATORIES INC., priority 2013, dated 2018)
Marks after values point to notes of the source that are not given here. The star is where a group is joined. Ac7‑β‑Cel = heptaacetyl-β-cellobioside (peracetylated β-cellobiose), CC(=O)OC[C@H]1O[C@@H](*)[C@H](OC(C)=O)[C@@H](OC(C)=O)[C@@H]1O[C@@H]1O[C@H](COC(C)=O)[C@@H](OC(C)=O)[C@H](OC(C)=O)[C@H]1OC(C)=O; Ac7‑β‑Lac = heptaacetyl-β-lactoside (peracetylated β-lactose), CC(=O)OC[C@H]1O[C@@H](O[C@H]2[C@H](OC(C)=O)[C@@H](OC(C)=O)[C@H](*)O[C@@H]2COC(C)=O)[C@H](OC(C)=O)[C@@H](OC(C)=O)[C@H]1OC(C)=O; Ac4‑β‑Gal = tetraacetyl-β-galactoside (peracetylated β-galactose), CC(=O)OC[C@H]1O[C@@H](*)[C@H](OC(C)=O)[C@@H](OC(C)=O)[C@H]1OC(C)=O; Ac3‑α‑Rha = triacetyl-α-rhamnoside (peracetylated α-rhamnose), CC(=O)O[C@@H]1[C@@H](OC(C)=O)[C@H](C)O[C@@H](*)[C@@H]1OC(C)=O; Ac4‑β‑Glc = per-acetylated β-glucose (tetraacetyl), CC(=O)OC[C@H]1O[C@@H](*)[C@H](OC(C)=O)[C@@H](OC(C)=O)[C@@H]1OC(C)=O; Ac3‑β‑Fuc = triacetyl-β-fucoside (peracetylated β-fucose), CC(=O)O[C@@H]1[C@H](OC(C)=O)[C@H](C)O[C@H](*)[C@H]1OC(C)=O; Ac3‑β‑Xyl = triacetyl-β-xyloside (peracetylated β-xylose), CC(=O)O[C@@H]1[C@@H](OC(C)=O)[C@H](OC(C)=O)CO[C@H]1*; Palmitoyl = CCCCCCCCCCCCCCCC(=O)*

How the values were obtained:
[1] = system: Human Dermal Fibroblasts (KMST-6); assay: ECM ELISA assay: elastin secretion by human dermal fibroblasts; assay type: cell-based; settings: 5 μM; for Elastin Secretion at 48 hours: KMST-6, 48 hours; for Elastin Secretion at 48 hours / Elastin Secretion at 72 hours: % compared to control set at 100%, normalized to total protein
Procedure: (§1) KMST-6 cells (Japan Health Sciences Foundation, JCRB0433) were seeded at 7,000 cells/ml in 12-well tissue culture treated plates (Falcon, 353043) in complete media. The complete media consisted of the following: MEM/EBSS (Hyclone, SH30024.01), 10% Heat-Inactivated FBS (Gibco, 10082-147), 1% L-Glutamine (Hyclone, SH30031.01), 1% Nucleosides (800 mg/L Adenosine, 850 mg/L Guanidine, 730 mg/L Cytidine, 730 mg/L Uridine and 240 mg/L Thymidine), 1% Penicillin/Streptomycin (HyClone, SV30010), 1% Sodium Pyruvate (HyClone, SH30239.01), 1% Non-Essential Amino Acids (Hyclone, SH30238.01) and 0.04% Gentamicin (Gibco, 15710-064). Cells were grown for 2 days prior to treatments. The media was aspirated and cells were washed with 1×PBS (Fisher, SH30256.01) and treated with 5 μM (1 mL/well) glycopeptides, reference (Pal-KTTKS, CPC Scientific, 822197), and control (DMSO, Fisher, BP231-100) in serum-free media supplemented with 50 μg/mL Sodium Ascorbate (Sigma, A4034) and 80 μg/mL β-Aminopropionate Fumarate (Sigma, A3134). The treated cells were incubated at 37° C. and 5% CO2 for 48 and 72 hours. At each timepoint, media from each treatment was collected and centrifuged at 1500 RPM for 15 minutes at 4° C. The supernatant was collected and stored at −80° C. for extracellular matrix protein quantification. The following kits were used for quantification of ECM proteins: Fibronectin (Takara, MK115) and Elastin (Uscn Life Science Inc., E91337Hu). The cells were harvest and lysed with 250 μL Lysis Buffer (20 mM Tris-HCl (Sigma, T1503), 137 mM NaCl (Sigma, S9888), 2 mM EDTA (Fisher, BP118), 1% IGEPAL (Sigma, 18896), 10% Glycerol (Sigma, G5516), 100 μM PMSF (Fisher, 36978) and 10 μg/mL Leupeptin (Sigma-Aldrich, L2884). They were placed on a container of ice on a plate shaker (Lab-Line Instruments, 3595) for 30 minutes. The lysate was centrifuged at 10,000 g for 5 minutes at 4° C. The supernatant was collected and used for protein quantification (BioRad, 500-0112).
(§2) To determine effects on extracellular matrix protein secretion, 5 μM of individual glycopeptides were incubated with Human Dermal Fibroblasts (KMST-6). The control sample cells were treated with DMSO (Fisher, BP231-100). As described previously, supernatant was collected from treated cells (at two time-points, 48 and 72 hours of treatment) and stored at −80° C. for subsequent extracellular matrix protein quantification using ELISA kits (Fibronectin (Takara, MK115), Elastin (Uscn Life Science Inc., E91337Hu). For the determination of total cellular protein, treated cells were harvested and lysed. The lysate was centrifuged, the supernatant was collected and then used for protein quantification (BioRad, 500-0112). ELISA plates were read on the plate reader (Molecular Devices) at absorbance of 450 nm and SoftMax Pro software was used to compute the μg/ml values of protein of interest derived from the generated 4-parameter fit standard curve. Each μg/ml of protein secreted was normalized to total protein per well. The data was analysed by averaging out normalized values from at least three independent experiments and presenting them as a % compared to control treatment set at 100% (Table 2-5). Statistical significance was performed using One-way ANOVA (p<0.05) where “*” represents statistical significance when compared to control and “#” represents statistical significance when compared to reference. […]

[2] = system: Human Dermal Fibroblasts (KMST-6); assay: ECM ELISA assay: fibronectin secretion by human dermal fibroblasts; assay type: cell-based; settings: 5 μM; for Fibronectin secretion at 48 hours: KMST-6, 48 hours; for Fibronectin secretion at 48 hours / Fibronectin Secretion at 72 hours: % compared to control set at 100%, normalized to total protein
Procedure: as §1, §2

Substance | Elastin Secretion at 48 hours [1] [%] | Elastin Secretion at 72 hours ([1]; KMST-6, 72 hours) | also measured
Pal-KTTKS(Ac4-β-Gal)-OH (Palmitoyl-KTTKS(Ac4‑β‑Gal)-OH; SMILES CCCCCCCCCCCCCCCC(=O)N[C@@H](CCCCN)C(=O)N[C@H](C(=O)N[C@H](C(=O)N[C@@H](CCCCN)C(=O)N[C@@H](CO[C@@H]1O[C@H](COC(C)=O)[C@H](OC(C)=O)[C@H](OC(C)=O)[C@H]1OC(C)=O)C(=O)O)[C@@H](C)O)[C@@H](C)O; listed as Homo sapiens) [GP002-7] | 198.3 | 207.1* % | biological activity in elastin secretion compared to control ([1]; 72 hours): greater biological activity; increased elastin secretion compared to control ([1]; 72 hours, versus DMSO control): 107%; ELASTIN (ECM Protein Summary Table) ([1]; KMST-6, 72 hours, control 100%): 207* %; biological activity in fibronectin secretion compared to control ([2]; 72 hours): greater biological activity; Fibronectin secretion at 48 hours [2]: 113.7%; Fibronectin Secretion at 72 hours ([2]; KMST-6, 72 hours): 116.1%; FIBRONECTIN (ECM Protein Summary Table) ([2]; KMST-6, 72 hours, control 100%): 116%
Pal-KTTKS(Ac3-α-Rha)-OH (Palmitoyl-KTTKS(Ac3‑α‑Rha)-OH; SMILES CCCCCCCCCCCCCCCC(=O)N[C@@H](CCCCN)C(=O)N[C@H](C(=O)N[C@H](C(=O)N[C@@H](CCCCN)C(=O)N[C@@H](CO[C@@H]1O[C@@H](C)[C@H](OC(C)=O)[C@@H](OC(C)=O)[C@H]1OC(C)=O)C(=O)O)[C@@H](C)O)[C@@H](C)O; listed as Homo sapiens) [GP004-8] | 166.8 | 169.3% | –
Pal-KT(Ac3-α-Rha)TKS-OH (Palmitoyl-KT(Ac3‑α‑Rha)TKS-OH; SMILES CCCCCCCCCCCCCCCC(=O)N[C@@H](CCCCN)C(=O)N[C@H](C(=O)N[C@H](C(=O)N[C@@H](CCCCN)C(=O)N[C@@H](CO)C(=O)O)[C@@H](C)O)[C@@H](C)O[C@@H]1O[C@@H](C)[C@H](OC(C)=O)[C@@H](OC(C)=O)[C@H]1OC(C)=O; listed as Homo sapiens) [GP004-7] | 241.0 | 193.0% | –
Pal-KTT(Ac4-β-Gal)KS-OH (Palmitoyl-KTT(Ac4‑β‑Gal)KS-OH; SMILES CCCCCCCCCCCCCCCC(=O)N[C@@H](CCCCN)C(=O)N[C@H](C(=O)N[C@H](C(=O)N[C@@H](CCCCN)C(=O)N[C@@H](CO)C(=O)O)[C@@H](C)O[C@@H]1O[C@H](COC(C)=O)[C@H](OC(C)=O)[C@H](OC(C)=O)[C@H]1OC(C)=O)[C@@H](C)O; listed as Homo sapiens) [GP004-2] | 186.5 | 138.3% | –
Pal-KTTKS(Ac3-β-Fuc)-OH (Palmitoyl-KTTKS(Ac3‑β‑Fuc)-OH; SMILES CCCCCCCCCCCCCCCC(=O)N[C@@H](CCCCN)C(=O)N[C@H](C(=O)N[C@H](C(=O)N[C@@H](CCCCN)C(=O)N[C@@H](CO[C@H]1O[C@@H](C)[C@@H](OC(C)=O)[C@@H](OC(C)=O)[C@@H]1OC(C)=O)C(=O)O)[C@@H](C)O)[C@@H](C)O; listed as Homo sapiens) [GP004-12] | 151.4 | 191.8% | –
Pal-KTTKS(Ac7-β-Cel)-OH (Palmitoyl-KTTKS(Ac7‑β‑Cel)-OH; SMILES CCCCCCCCCCCCCCCC(=O)N[C@@H](CCCCN)C(=O)N[C@H](C(=O)N[C@H](C(=O)N[C@@H](CCCCN)C(=O)N[C@@H](CO[C@@H]1O[C@H](COC(C)=O)[C@@H](O[C@@H]2O[C@H](COC(C)=O)[C@@H](OC(C)=O)[C@H](OC(C)=O)[C@H]2OC(C)=O)[C@H](OC(C)=O)[C@H]1OC(C)=O)C(=O)O)[C@@H](C)O)[C@@H](C)O; listed as Homo sapiens) [GP004-10] | 211.3 | 187.0% | –
Pal-KT(Ac4-β-Gal)TKS-OH (Palmitoyl-KT(Ac4‑β‑Gal)TKS-OH; SMILES CCCCCCCCCCCCCCCC(=O)N[C@@H](CCCCN)C(=O)N[C@H](C(=O)N[C@H](C(=O)N[C@@H](CCCCN)C(=O)N[C@@H](CO)C(=O)O)[C@@H](C)O)[C@@H](C)O[C@@H]1O[C@H](COC(C)=O)[C@H](OC(C)=O)[C@H](OC(C)=O)[C@H]1OC(C)=O; listed as Homo sapiens) [GP004-1] | 215.3 | 202.0% | –
Pal-KTT(Ac4-β-Glc)KS-OH (Palmitoyl-KTT(Ac4‑β‑Glc)KS-OH; SMILES CCCCCCCCCCCCCCCC(=O)N[C@@H](CCCCN)C(=O)N[C@H](C(=O)N[C@H](C(=O)N[C@@H](CCCCN)C(=O)N[C@@H](CO)C(=O)O)[C@@H](C)O[C@@H]1O[C@H](COC(C)=O)[C@@H](OC(C)=O)[C@H](OC(C)=O)[C@H]1OC(C)=O)[C@@H](C)O; listed as Homo sapiens) [GP001-7] | – | – | Fibronectin secretion at 48 hours [2]: 101.3%; Fibronectin Secretion at 72 hours ([2]; KMST-6, 72 hours): 109.4%
Pal-KT(Ac7-β-Lac)TKS-OH (Palmitoyl-KT(Ac7‑β‑Lac)TKS-OH; SMILES CCCCCCCCCCCCCCCC(=O)N[C@@H](CCCCN)C(=O)N[C@H](C(=O)N[C@H](C(=O)N[C@@H](CCCCN)C(=O)N[C@@H](CO)C(=O)O)[C@@H](C)O)[C@@H](C)O[C@@H]1O[C@H](COC(C)=O)[C@@H](O[C@@H]2O[C@H](COC(C)=O)[C@H](OC(C)=O)[C@H](OC(C)=O)[C@H]2OC(C)=O)[C@H](OC(C)=O)[C@H]1OC(C)=O; listed as Homo sapiens) [GP004-5] | 195.3 | 209.5% | –
Pal-KTTKS(Ac3-β-Xyl)-OH (Palmitoyl-KTTKS(Ac3‑β‑Xyl)-OH; SMILES CCCCCCCCCCCCCCCC(=O)N[C@@H](CCCCN)C(=O)N[C@H](C(=O)N[C@H](C(=O)N[C@@H](CCCCN)C(=O)N[C@@H](CO[C@@H]1OC[C@@H](OC(C)=O)[C@H](OC(C)=O)[C@H]1OC(C)=O)C(=O)O)[C@@H](C)O)[C@@H](C)O; listed as Homo sapiens) [GP004-11] | 178.8 | 121.3% | –
Pal-KT(Ac7-β-Cel)TKS-OH (Palmitoyl-KT(Ac7‑β‑Cel)TKS-OH; SMILES CCCCCCCCCCCCCCCC(=O)N[C@@H](CCCCN)C(=O)N[C@H](C(=O)N[C@H](C(=O)N[C@@H](CCCCN)C(=O)N[C@@H](CO)C(=O)O)[C@@H](C)O)[C@@H](C)O[C@@H]1O[C@H](COC(C)=O)[C@@H](O[C@@H]2O[C@H](COC(C)=O)[C@@H](OC(C)=O)[C@H](OC(C)=O)[C@H]2OC(C)=O)[C@H](OC(C)=O)[C@H]1OC(C)=O; listed as Homo sapiens) [GP004-9] | 199.3 | 254.6* % | –
Pal-KTTKS(Ac7-β-Lac)-OH (Palmitoyl-KTTKS(Ac7‑β‑Lac)-OH; SMILES CCCCCCCCCCCCCCCC(=O)N[C@@H](CCCCN)C(=O)N[C@H](C(=O)N[C@H](C(=O)N[C@@H](CCCCN)C(=O)N[C@@H](CO[C@@H]1O[C@H](COC(C)=O)[C@@H](O[C@@H]2O[C@H](COC(C)=O)[C@H](OC(C)=O)[C@H](OC(C)=O)[C@H]2OC(C)=O)[C@H](OC(C)=O)[C@H]1OC(C)=O)C(=O)O)[C@@H](C)O)[C@@H](C)O; listed as Homo sapiens) [GP004-6] | 218.6 | 170.0% | –
